Assay results published in patent US20230000816A1, “SODIUM-GLUCOSE LINKED TRANSPORTER INHIBITORS FOR THE MANAGEMENT OF CHRONIC KIDNEY DISEASE, HYPERTENSION, AND HEART FAILURE IN COMPANION ANIMALS” (INCREVET, INC., priority 2019, published 2023).
Converted amounts (≈) assume the structure as drawn.

Assays:
[1] = Solubility; type: physicochemical
[2] = test system: cats; test: Urinary glucose excretion in cats given bexagliflozin tablets; type: in vivo, cat
[3] = test system: purpose-bred beagles; test: Serum glucose after single oral dose and glucose challenge 1 h post-dose in dogs; type: in vivo, dog; conditions: mean ± SD; for Serum Glucose Concentration, 15 min / Serum Glucose Concentration, 30 min / Serum Glucose Concentration, 60 min / Serum Glucose Concentration, 120 min: after glucose challenge; for Serum Glucose Concentration, −60 min: before dosing; for Serum Glucose Concentration, 0 min: before glucose challenge (1 h post-dose)
Protocol: Groups of four purpose-bred beagles per cohort were administered ascending doses of bexagliflozin in the form of a proline co-crystal consisting of two moles of L-proline for every mole of bexagliflozin. The co-crystal was dissolved in 10% PEG400 and administered by oral gavage to dogs that had been fasted overnight. Control dogs were administered 10% PEG400. One hour after dosing, glucose solution (2 g kg^−1, 5 ml kg^−1) was administered by gavage. Serum glucose concentrations were quantitated by an automated clinical chemistry analyzer for samples collected before dosing, before glucose challenge, and 15, 30, 60, and 120 min after glucose challenge. Urine was collected from 0 to 4 h, 4 to 8 h and 8 to 24 h after dosing for electrolyte analyses (Na^+, K^+, Cl^− and Ca^2+) and glucose measurement. Whole blood samples of approximately 500 μL were collected from the cephalic vein 0, 0.25, 0.5, 1, 2, 4, 8, 12 and 24 h after dosing for pharmacokinetic analysis.

[4] = test system: cats with diabetes; test: Measures of renal health (creatinine, BUN, SDMA) in diabetic cats managed with bexagliflozin, MMRM analysis; type: in vivo, cat
Description: Venous blood specimens were collected at regular intervals and analyzed for standard parameters of interest for routine clinical care, including creatinine, BUN and SDMA. Owners were advised to provide a diet low in carbohydrates as an element of the disease management plan. An important consequence of the shift to a low carbohydrate diet is the increase in dietary protein (contributing to BUN) and specifically dietary muscle-derived protein (contributing to creatinine).
FIG. 6, FIG. 7 and FIG. 8 show the measured concentrations of creatinine, BUN and SDMA in cats as a function of time in the study. […] Considerable variation can be seen in the individual values.
To identify treatment-related trends, the data for each of the three analytes were analyzed by a mixed model repeated measures (MMRM) analysis of covariance, with cat as a categorical (class) effect and day of measurement and initial value at the baseline visit as continuous covariates. Because the diets of many of the animals were changed at the baseline visit, and the effects of diet on creatinine and BUN are generally thought to be prompt, the analysis considered only changes in analyte values over the non-baseline visit days.

[5] = test system: feline SGLT2; test: Inhibition of feline SGLT2
[6] = molecular target: T1, human SGLT2 (Homo sapiens, UniProt P31639); test: Inhibition of human SGLT2
T1 sequence (P31639 1-672): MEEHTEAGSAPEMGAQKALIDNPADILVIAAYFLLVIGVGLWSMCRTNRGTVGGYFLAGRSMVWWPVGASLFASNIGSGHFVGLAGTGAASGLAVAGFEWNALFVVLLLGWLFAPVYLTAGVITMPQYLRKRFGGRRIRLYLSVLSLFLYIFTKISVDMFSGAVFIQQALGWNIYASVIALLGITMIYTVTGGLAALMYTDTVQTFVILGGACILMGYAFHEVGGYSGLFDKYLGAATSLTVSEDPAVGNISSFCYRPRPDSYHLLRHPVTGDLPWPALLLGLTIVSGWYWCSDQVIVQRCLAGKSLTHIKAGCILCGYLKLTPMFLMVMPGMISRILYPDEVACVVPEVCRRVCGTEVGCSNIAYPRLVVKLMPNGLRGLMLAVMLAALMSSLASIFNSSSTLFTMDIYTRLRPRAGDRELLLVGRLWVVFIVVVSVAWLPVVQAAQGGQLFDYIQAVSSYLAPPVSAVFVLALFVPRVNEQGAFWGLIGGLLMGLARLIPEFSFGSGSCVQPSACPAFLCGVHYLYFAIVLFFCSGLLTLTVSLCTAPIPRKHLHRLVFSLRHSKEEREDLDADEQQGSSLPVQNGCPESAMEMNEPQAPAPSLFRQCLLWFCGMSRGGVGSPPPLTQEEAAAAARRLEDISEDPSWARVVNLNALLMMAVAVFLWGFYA

[7] = test system: cats with diabetes; test: Owner and veterinarian assessments of vitality and weight in diabetic cats; type: in vivo, cat
Description: Assessments by both owners and veterinarians of correlative measures of cat vitality were also collected over the course of various studies. Some of the relevant measures for this analysis are the subjective impressions of cat musculature, solicited from both owners and veterinarians, and owner views of cat overall activity as well as leaping ability. The rating instrument was a 4-point scale with 0=excellent, 1=good, 2=fair and 3=poor.

[8] = test system: feline SGLT1; test: Inhibition of feline SGLT1

For `OC[C@H]1O[C@@H](c2ccc(Cl)c(Cc3ccc(OCCOC4CC4)cc3)c2)[C@H](O)[C@@H](O)[C@@H]1O` [Bexagliflozin, (2S,3R,4R,5 S,6R)-2-(4-chloro-3-(4-(2-cyclopropoxyethoxy)benzyl)phenyl)-6-(hydroxymethyl)tetrahydro-2H-pyran-3,4,5-triol], the “solubility in ethanol, propylene glycol and PEGs relative to water” value [1] was “more soluble”, the solubility ([1]; water at 25° C.) was roughly 0.5 mg/mL (≈ 1080 µM) and the “% of the maximum pharmacodynamic effect” value ([2]; cats, dose 200 μg kg^−1, based on results in purpose-bred cats) was 28%. For the same compound, the “% of the maximum pharmacodynamic effect” value ([2]; cats, dose 400 μg kg^−1) was 44%, the “% of the maximum pharmacodynamic effect” value ([2]; cats, dose 800 μg kg^−1) was 61% and the “% of the maximum pharmacodynamic effect” value ([2]; cats, dose 1600 μg kg^−1) was 76%. The “% of the maximum pharmacodynamic effect” value ([2]; cats, dose 3200 μg kg^−1) was 86%, the “% of the maximum pharmacodynamic effect” value ([2]; cats, dose 6400 μg kg^−1) was 93% and the “% of the maximum pharmacodynamic effect” value ([2]; cats, dose 12800 μg kg^−1) was 96%. For the same compound, the “% of the maximum pharmacodynamic effect” value ([2]; cats, dose 25600 μg kg^−1) was 98%, the “ED50 for urinary glucose excretion” value ([2]; cats, tablets of varying strengths, simple logistic model) was “approximately 0.5 mg kg^−1” and the “Emax for urinary glucose excretion” value ([2]; healthy cats) was 2.21 g of glucose per kg of body mass. The “Serum Glucose Concentration, 15 min” value ([3]; 0.02 mg kg^−1 oral) was 122.13 ± 17.54 mg/dL, the “Serum Glucose Concentration, 30 min” value ([3]; 0.02 mg kg^−1 oral) was 97.43 ± 6.87 mg/dL and the “Serum Glucose Concentration, 60 min” value ([3]; 0.02 mg kg^−1 oral) was 93.29 ± 19.87 mg/dL. For the same compound, the “Serum Glucose Concentration, 120 min” value ([3]; 0.02 mg kg^−1 oral) was 78.03 ± 10.98 mg/dL, the “Serum Glucose Concentration, −60 min” value ([3]; 0.02 mg kg^−1 oral, time relative to glucose challenge) was 100.89 ± 3.49 mg/dL and the “Serum Glucose Concentration, 0 min” value ([3]; 0.02 mg kg^−1 oral) was 95.94 ± 8.37 mg/dL. For the same compound, the “Serum Glucose Concentration, 15 min” value ([3]; 0.067 mg kg^−1 oral) was 107.91 ± 12.08 mg/dL, the “Serum Glucose Concentration, 30 min” value ([3]; 0.067 mg kg^−1 oral) was 104.31 ± 26.84 mg/dL and the “Serum Glucose Concentration, 60 min” value ([3]; 0.067 mg kg^−1 oral) was 104.27 ± 17.85 mg/dL. The “Serum Glucose Concentration, 120 min” value ([3]; 0.067 mg kg^−1 oral) was 79.65 ± 11.69 mg/dL, the “Serum Glucose Concentration, −60 min” value ([3]; 0.067 mg kg^−1 oral) was 98.64 ± 7.63 mg/dL and the “Serum Glucose Concentration, 0 min” value ([3]; 0.067 mg kg^−1 oral) was 91.58 ± 6.49 mg/dL. For the same compound, the “Serum Glucose Concentration, 15 min” value ([3]; 0.20 mg kg^−1 oral) was 96.71 ± 7.21 mg/dL, the “Serum Glucose Concentration, 30 min” value ([3]; 0.20 mg kg^−1 oral) was 105.48 ± 18.67 mg/dL and the “Serum Glucose Concentration, 60 min” value ([3]; 0.20 mg kg^−1 oral) was 101.75 ± 14.83 mg/dL. For the same compound, the “Serum Glucose Concentration, 120 min” value ([3]; 0.20 mg kg^−1 oral) was 76.10 ± 7.91 mg/dL, the “Serum Glucose Concentration, −60 min” value ([3]; 0.20 mg kg^−1 oral) was 97.02 ± 7.61 mg/dL and the “Serum Glucose Concentration, 0 min” value ([3]; 0.20 mg kg^−1 oral) was 84.65 ± 7.98 mg/dL. For the same compound, the “Serum Glucose Concentration, 15 min” value ([3]; 0.67 mg kg^−1 oral) was 109.94 ± 17.55 mg/dL, the “Serum Glucose Concentration, 30 min” value ([3]; 0.67 mg kg^−1 oral) was 109.04 ± 26.58 mg/dL and the “Serum Glucose Concentration, 60 min” value ([3]; 0.67 mg kg^−1 oral) was 106.79 ± 11.98 mg/dL. The “Serum Glucose Concentration, 120 min” value ([3]; 0.67 mg kg^−1 oral) was 76.95 ± 11.53 mg/dL, the “Serum Glucose Concentration, −60 min” value ([3]; 0.67 mg kg^−1 oral) was 97.70 ± 5.27 mg/dL and the “Serum Glucose Concentration, 0 min” value ([3]; 0.67 mg kg^−1 oral) was 87.08 ± 6.03 mg/dL. The “Serum Glucose Concentration, 15 min” value ([3]; 2.0 mg kg^−1 oral) was 104.49 ± 9.60 mg/dL, the “Serum Glucose Concentration, 30 min” value ([3]; 2.0 mg kg^−1 oral) was 112.86 ± 9.82 mg/dL and the “Serum Glucose Concentration, 60 min” value ([3]; 2.0 mg kg^−1 oral) was 108.81 ± 6.77 mg/dL. The “Serum Glucose Concentration, 120 min” value ([3]; 2.0 mg kg^−1 oral) was 71.06 ± 5.49 mg/dL, the “Serum Glucose Concentration, −60 min” value ([3]; 2.0 mg kg^−1 oral) was 92.21 ± 7.11 mg/dL and the “Serum Glucose Concentration, 0 min” value ([3]; 2.0 mg kg^−1 oral) was 85.10 ± 4.74 mg/dL. For the same compound, the “model-adjusted population mean BUN concentration” value ([4]; diabetic cats on bexagliflozin) was 33.82 mg/dL, the “model-adjusted population mean SDMA concentration” value ([4]; diabetic cats on bexagliflozin) was 19.10 µg/dL and the “model-adjusted population mean creatinine concentration” value ([4]; diabetic cats on bexagliflozin, non-baseline visits) was 1.367 mg/dL. The “estimated coefficient for day of measurement, creatinine” value ([4]; diabetic cats, p<0.0001) was 0.000928, the “estimated coefficient for day of measurement, BUN” value ([4]; diabetic cats, p=0.0172) was −0.01346 and the “estimated coefficient for day of measurement, SDMA” value ([4]; diabetic cats, p=0.5338, not significant) was −0.0021. For the same compound, the “inhibition of feline SGLT2 (in words)” value [5] was “potent but less selective inhibitor”, the “inhibition of human SGLT2 (in words)” value [6] was “highly effective and specific inhibitor” and the “owner assessment of activity” value ([7]; 4-point scale) was “more active”. The “owner assessment of leaping ability” value ([7]; 4-point scale) was “better leaping ability”, the “veterinarian and owner assessments of musculature” value ([7]; 4-point scale, statistically significant) was “musculature of study cats had improved” and the mean cat weight ([7]; by visit, highly significant) was “mean cat weight increased”. The “potency for feline SGLT1 (in words)” value [8] was “high potency”.
